Laboratory results: patent US11207421B2, “Nanostructures comprising cobalt porphyrin-phospholipid conjugates and polyhistidine-tags” (The Research Foundation for The State University of New York, priority 2015, dated 2021)
Where a SMILES comes first, the peptide text is derived from it. Where no end group is shown, it is not given here. The star is where a group is joined. 5FAM = O=C1OC2(c3ccc(O)cc3Oc3cc(O)ccc32)c2ccc(C(=O)*)cc21; Palmitoyl = CCCCCCCCCCCCCCCC(=O)*

Columns and labels:
CoPoP liposomes = assay: Effect of His-tag length on peptide binding to CoPoP liposomes; settings: FAM-labeled peptides with varying His-tag length
Protocol: 1 μg of fluorescent reporter protein was incubated with 20 μg of liposomes in 200 μL PBS in a 96 well plate. Fluorescence in the FRET channel (ex: 430 nm, em: 525 nm) was measured periodically with a fluorescence microplate reader (Tecan Infinite II). Data were normalized to the FRET signal in the protein without addition of liposomes. EMSA experiments were performed with 2.5 μg protein incubated with 50 μg liposomes followed by electrophoresis in a 0.75% agarose gel with 50 V applied for 90 minutes and imaging with an IVIS Lumina II system with the indicated excitation and emission filters. For serum stability test, […] in 40u l PBS. After […], 40u l FBS was added and incubated for another 8 h (hours). For imidazole displacement experiments, 1 μg of reporter protein was bound to 20 μg liposomes in PBS. Imidazole was then titrated and binding was assessed with fluorescence. For serum stability, 1 μg of reporter protein was bound to 20 μg liposomes in 100 μL PBS and then an equal volume of fetal bovine serum (VWR #82013-602) was added and binding was monitored with fluorescence. Peptide binding was assessed with RGD-His FAM fluorophore quenching following incubation of 500 ng peptide with 20 μg liposomes.
The effect of His-tag length on peptide binding to CoPoP liposome was examined. A series of N-terminus FAM-labeled peptides was synthesized with varying lengths of His-tag attached to the C-terminus.

[1] = assay type: physicochemical; settings: not told
Protocol: PoP-liposomes were formulated at a 1 mg scale. After dissolving lipids in chloroform in a test tube, the solvent was evaporated and the film was further dried under vacuum overnight. Lipids were rehydrated with 1 mL of phosphate buffered saline (PBS), sonicated, subjected to 10 freeze-thaw cycles and then extruded through 100 nm polycarbonate membranes (VWR #28157-790) with a handheld extruder (Avanti #610000). For protein and peptide binding analysis, liposomes were formed with 10 mol % PoP along with 85 mol % DOPC (Avanti #850375P), and 5 mol % PEG-lipid (Avanti #880120P). […] Liposomes incorporating free Co-porphyrin included 10 molar % Co-pyropheophorbide with 85 mol % DOPC and 5 mol % PEG-lipid. Co-NTA-liposome was prepared using liposomes containing 10 mol % dioleoyl-gycero-NTA (Avanti #790528P). Liposomes were incubated with 20 mg/mL cobalt (II) chloride for 2 hours and then dialized in PBS. Sulforhodamine B loading liposomes contained 10 mol % PoP, 35 mol % cholesterol (Avanti #700000P), 55 mol % DOPC and PEG-lipid as indicated. […] For bilayer integrity and quantitative cell binding studies, 50 mM dye was used, whereas microscopy studies used 10 mM dye.
Given the binding efficacy of the His-tagged peptide to liposomes, bilayer integrity was assessed to determine whether peptide binding induces membrane destabilization. […]

U87 glioblastoma cells = assay: Targeted uptake of sulforhodamine B-loaded liposomes; assay type: cell-based; settings: excess free RGD peptide
Protocol: U-87 and MCF-7 cell lines were obtained from ATCC and cultured according to vendor protocol. 2×10^4 cells were seeded overnight in 96-well-plate wells. 500 ng RGD-His peptide was bound with 20 μg of sulforhodamine B loaded liposomes and liposomes were incubated with cells for 2 h. Media was removed, cells were washed with PBS 3 times and then cells and liposomes were lysed with a 1% Triton X-100 solution. Liposomal uptake was assessed by measuring the fluorescence of sulforhodamine B.
For confocal imaging, 10^4 cells were seeded overnight in a Nunc chamber slide (Nunc #155411) in DMEM with 10% fetal bovine serum (FBS). 20 μg of liposomes were added to the serum containing media and incubated for 2 h. Media was removed and the cells were washed with PBS 3 times. Fresh media was added and cells were imaged with microscopy using a Zeiss LSM 710 confocal fluorescence microscope. Gold imaging was carried out in the same way but 633 nm light was used for both excitation and emission for back scatter imaging. […]
Next, RGD-decorated liposomes were assessed whether they could bind to their molecular targets with the established cell-line pair of U87 glioblastoma cells (RGD-binding) and MCF7 breast cancer cells (RGD non-binding). […] Liposomal uptake was assessed by examining the fluorescence in the cells following washing and lysis (to remove any effects of cargo self-quenching). […]

U87 cells [2] = assay: Uptake of coated gold nanospheres (confocal reflectance/backscatter microscopy); assay type: cell-based; settings: free RGD
Protocol: For gold coating, 60 nm citrate-stabilized gold nanospheres (Ted Pella #15709-20) were used to hydrate a 1 mg lipid film composed of 45 mol % distearoyl phosphocholine (Avanti #850365P), 45 mol % distearoyl phosphoglycerol (Avanti #840465X) and 10 mol % PoP. Following brief vortexing and sonication, the samples were repeatedly centrifuged at 1500 relative centrifugal force (rcf) for 15 min. The supernatant was discarded and the pellet was resuspended and re-centrifuged 2 more times. PoP gold was resuspended in water for further analysis.
For confocal imaging, 10^4 cells were seeded overnight in a Nunc chamber slide (Nunc #155411) in DMEM with 10% fetal bovine serum (FBS). 20 μg of liposomes were added to the serum containing media and incubated for 2 h. Media was removed and the cells were washed with PBS 3 times. Fresh media was added and cells were imaged with microscopy using a Zeiss LSM 710 confocal fluorescence microscope. Gold imaging was carried out in the same way but 633 nm light was used for both excitation and emission for back scatter imaging. After peptide binding, gold was centrifuged to remove any unbound RGD peptide.
Liposomes represent only a subset of all the types of nanomaterials used in biomedical applications. CoPoP was assessed as a generalized surface coating with selective adhesion for His-tags. […]

U87 cells [3] = assay: Uptake of CoPoP liposomes bound to his-tagged cell penetrating peptides; assay type: cell-based; settings: 1 hour incubation; [2:5:30:63] [PoP:CoP:CHOL:DMPC]
Description: In this example, CoPoP liposomes were targeted to cells via his-tagged cell penetrating peptides. The following his-tagged cell penetrating peptides were obtained: […] (SEQ ID NO:13) (TAT peptide); […] (SEQ ID NO:14) (R8 peptide); […] (SEQ ID NO:15) (PEN peptide).

[4] = tested on: murine RAW 264.7 macrophage cells; assay: DY-490-OspA uptake by macrophage cells; assay type: cell-based; settings: 2 hr incubation
Protocol: FIG. 24. Assessing epitope availability and stability of antigen-functionalized nanoliposomes. (A) Stability of nanoliposome-antigen particles in 20% (v/v) human serum based on fluorescence quenching assay. (B) Immunoprecipitation of OspA-bound liposomes by OspA-specific monoclonal antibody LA-2. (C) DY-490-OspA uptake by murine RAW 264.7 macrophage cells following 2 hr incubation with indicated samples. Cytochalasin B was supplemented to medium 1 hr prior to incubation. Error bars represent standard deviations for n=3 experiments.
Practical utility of liposomes as antigen delivery vesicles is attributed from its enhanced uptake by antigen presenting cells. […] The macrophage selective uptake of PoP/PHAD liposomes in the mixed form further implicates that physical association of antigen to liposomes may be necessary for liposomal adjuvanticity. Co-delivery of surface-exposed antigen and immunostimulant to immune cells is an important facet of the CoPoP/PHAD liposome. Cellular uptake mechanism via phagocytosis is supported by the diminished uptake for both antigen and liposome in the presence of cytochalasin B.

his-tagged OspA = molecular target: T1, his-tagged OspA (Borreliella burgdorferi, UniProt P0CL66); assay: OspA binding to CoPoP/PHAD liposomes (native PAGE, microBCA); set-up: species or system Borrelia burgdorferi; settings: microBCA assay of supernatant after high speed centrifugation
T1 construct: made in house; host or cells: E. coli
Protocol: FIG. 23. […] (D) Hydrodynamic diameter and polydispersity index of liposomes measured using dynamic light scattering. […] Acquisitions were made 3 hr after incubation of liposomes with protein. Error bars represent standard deviations for n=3 measurements.
Spontaneous formation of the proteoliposomes occurs via insertion of the histidine tag into the hydrophobic bilayer and subsequent coordination of the imidazole moiety to the metal center. Binding conditions for were evaluated using native electrophoresis, which allows physical separation of liposome-bound and free proteins due to the limiting pore size of the acrylamide gel. Observed optimum binding mass ratio of 4:1 of PHAD:OspA (FIG. 23A) is consistent with previous studies using the malaria antigen, Pfs25. […] It can be deduced that the initial phase of binding occurred at a fast rate based from the relative band intensities for time points, 0 and 15 min. At the particleization conditions, specific binding is estimated to be about 80% based from microBCA assay of the supernatant obtained from high speed centrifugation (FIG. 23C).

T1 sequence (P0CL66 17-273): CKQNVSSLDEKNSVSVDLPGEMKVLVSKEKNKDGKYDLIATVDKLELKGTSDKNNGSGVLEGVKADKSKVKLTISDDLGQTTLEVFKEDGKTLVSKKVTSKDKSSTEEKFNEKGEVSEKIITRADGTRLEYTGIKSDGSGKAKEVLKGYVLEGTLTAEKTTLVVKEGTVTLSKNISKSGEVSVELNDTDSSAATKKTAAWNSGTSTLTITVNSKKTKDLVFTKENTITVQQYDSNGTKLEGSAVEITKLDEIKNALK

Compound: 5-FAM-KKGGGG (SEQ ID NO: 5) (5FAM-KKGGGG) [0-His]
- binding t1/2 (CoPoP liposomes): no peptide binding was observed

Compound: 5-FAM-KKGGGGHH (SEQ ID NO: 6) (5FAM-KKGGGGHH) [2-His]
- binding t1/2 (CoPoP liposomes): ~10 h

Compound: 5-FAM-KKGGGGHHHHHH (SEQ ID NO: 8) (5FAM-KKGGGGHHHHHH) [6-His]
- binding t1/2 (CoPoP liposomes): less than one hour

Compound: 5-FAM-KKGGGGHHHHHHHHHH (SEQ ID NO: 10) (5FAM-KKGGGGHHHHHHHHHH) [10-His]
- binding t1/2 (CoPoP liposomes): 0.333 h

Compound: CCCCCCCCCCCCCCCC(=O)NCCCC[C@H](NC(=O)CNC(=O)[C@H](CCCCN)NC(=O)[C@H](C)NC(=O)CNC(=O)[C@H](C)NC(=O)CNC(=O)[C@H](CCCCN)NC(=O)[C@@H]1CCCN1C(=O)[C@H](CO)NC(=O)[C@H](CC(=O)O)NC(=O)CNC(=O)[C@H](CCCNC(=N)N)NC(=O)CNC(=O)c1ccc2c(c1)C(=O)OC21c2ccc(O)cc2Oc2cc(O)ccc21)C(=O)O [RGD-palm] (5FAM-GRGDSPKGAGAKGK(Palmitoyl)-OH; C-terminus assumed)
- membrane permeabilization by lipopeptide [1]: permeabilization of cargo-loaded liposomes

Compound: GRGDSPK (SEQ ID NO: 2) [Free RGD]
- inhibition of targeted liposome binding (U87 glioblastoma cells): Binding could be inhibited
- inhibition of gold nanoparticle binding (U87 cells [2]): inhibited the binding

Compound: HHHHHHHGRKKRRQRRRPPQ (SEQ ID NO:13) (cell penetrating peptide) [TAT peptide]
- binding and uptake of peptide-bound CoPoP liposomes (U87 cells [3]): could bind and get uptaken

Compound: HHHHHHHRQIKIWFQNRRMKWKK (SEQ ID NO:15) (cell penetrating peptide) [PEN peptide]
- binding and uptake of peptide-bound CoPoP liposomes (U87 cells [3]): could bind and get uptaken

Compound: HHHHHHHRRRRRRRR (SEQ ID NO:14) (cell penetrating peptide) [R8 peptide]
- binding and uptake of peptide-bound CoPoP liposomes (U87 cells [3]): could bind and get uptaken

Compound: OspA: his-tagged OspA based on the B31 strain protein sequence without the lipid tail, free non-adjuvanted
- antigen uptake [4]: Minimal uptake

Compound: lysozyme: a non-histidine tagged protein
- specific binding (his-tagged OspA): failed to bind
